Values of other authors, collected in PubChem BioAssay AID1259409 (Chemical Carcinogenesis Research Information System (CCRIS), 2018).

Tested on: rodent chemically induced tumor inhibition, incidence and multiplicity
Assay: CCRIS tumor inhibitor studies
Conditions: Route [Inhibitor]: ORAL

O=C1O[C@H]([C@@H](O)CO)C(O)=C1O
tumour outcome (control, treated, inhibition, significance) (Carcinogen: 1,2-DIMETHYLHYDRAZINE, 540-73-8, Dose [Inhibitor]: 0.3% IN DRINKING WATER BEGINNING POST LAST CARCINOGEN DOSE AND CONTINUING FOR DURATION OF STUDY (STUDY DURATION: 55 WK), Species: MOUSE, Strain/Sex: CBA/FEMALE, Target Tissue: Type of Lesion: UTERUS (ENDOMETRIUM): STROMAL SARCOMA, Dose [Carcinogen]: 8 MG/KG BW IN WATER 1/WK FOR 8 WK, Promoter: ESTRADIOL PROPIONATE, 113-38-2): 13/40 (33%), 3/40 (8%), 77%, not calculated
tumour outcome (control, treated, inhibition, significance) (Carcinogen: 1,2-DIMETHYLHYDRAZINE, 540-73-8, Dose [Inhibitor]: 1% IN 20% FAT DIET DAILY STARTING 2 WK BEFORE CARCINOGEN TREATMENT AND CONTINUING FOR DURATION OF STUDY (STUDY DURATION:, Species: RAT, Strain/Sex: F344/FEMALE, Target Tissue: Type of Lesion: COLON: ADENOMA, ADENOCARCINOMA, Dose [Carcinogen]: 150 MG/KG BW IN 0.9% SALINE ADJUSTED TO PH 6.8 ONCE, Promoter: NONE USED): 26%, 0%, 100%, p<0.05
tumour outcome (control, treated, inhibition, significance) (Carcinogen: 1,2-DIMETHYLHYDRAZINE, 540-73-8, Dose [Inhibitor]: 1% IN 20% FAT DIET DAILY STARTING 2 WK BEFORE CARCINOGEN TREATMENT AND CONTINUING FOR DURATION OF STUDY (STUDY DURATION:, Species: RAT, Strain/Sex: F344/FEMALE, Target Tissue: Type of Lesion: KIDNEY: NEPHROBLASTOMA, ADENOCARCINOMA, Dose [Carcinogen]: 150 MG/KG BW IN 0.9% SALINE ADJUSTED TO PH 6.8 ONCE, Promoter: NONE USED): 22%, 0%, 100%, p<0.05
tumour outcome (control, treated, inhibition, significance) (Carcinogen: 1,2-DIMETHYLHYDRAZINE, 540-73-8, Dose [Inhibitor]: 1% IN 20% FAT DIET DAILY STARTING 2 WK BEFORE START OF CARCINOGEN TREATMENT AND CONTINUING FOR DURATION OF STUDY (STUDY, Species: RAT, Strain/Sex: F344/FEMALE, Target Tissue: Type of Lesion: COLON: ADENOCARCINOMA, Dose [Carcinogen]: 20 MG/KG BW IN 0.9% SALINE 1/WK FOR 10 WK, Promoter: NONE USED): 33%, 39%, -18%, not significant
tumour outcome (control, treated, inhibition, significance) (Carcinogen: 1,2-DIMETHYLHYDRAZINE, 540-73-8, Dose [Inhibitor]: 1% IN 20% FAT DIET DAILY STARTING 2 WK BEFORE START OF CARCINOGEN TREATMENT AND CONTINUING FOR DURATION OF STUDY (STUDY, Species: RAT, Strain/Sex: F344/FEMALE, Target Tissue: Type of Lesion: COLON: ADENOMA, Dose [Carcinogen]: 20 MG/KG BW IN 0.9% SALINE 1/WK FOR 10 WK, Promoter: NONE USED): 42%, 39%, 7%, not significant
tumour outcome (control, treated, inhibition, significance) (Carcinogen: 1,2-DIMETHYLHYDRAZINE, 540-73-8, Dose [Inhibitor]: 1% IN 20% FAT DIET DAILY STARTING 2 WK BEFORE START OF CARCINOGEN TREATMENT AND CONTINUING FOR DURATION OF STUDY (STUDY, Species: RAT, Strain/Sex: F344/FEMALE, Target Tissue: Type of Lesion: DUODENUM: ADENOCARCINOMA, ADENOMA, Dose [Carcinogen]: 20 MG/KG BW IN 0.9% SALINE 1/WK FOR 10 WK, Promoter: NONE USED): 25%, 26%, -4%, not significant
tumour outcome (control, treated, inhibition, significance) (Carcinogen: 1,2-DIMETHYLHYDRAZINE, 540-73-8, Dose [Inhibitor]: 1% IN 20% FAT DIET DAILY STARTING 2 WK BEFORE START OF CARCINOGEN TREATMENT AND CONTINUING FOR DURATION OF STUDY (STUDY, Species: RAT, Strain/Sex: F344/FEMALE, Target Tissue: Type of Lesion: EAR DUCT: SQUAMOUS CELL CARCINOMA, Dose [Carcinogen]: 20 MG/KG BW IN 0.9% SALINE 1/WK FOR 10 WK, Promoter: NONE USED): 13%, 13%, 0%, not significant
tumour outcome (control, treated, inhibition, significance) (Carcinogen: 1,2-DIMETHYLHYDRAZINE, 540-73-8, Dose [Inhibitor]: 1% IN 20% FAT DIET DAILY STARTING 2 WK BEFORE START OF CARCINOGEN TREATMENT AND CONTINUING FOR DURATION OF STUDY (STUDY, Species: RAT, Strain/Sex: F344/FEMALE, Target Tissue: Type of Lesion: KIDNEY: NEPHROBLASTOMA, ADENOCARCINOMA, Dose [Carcinogen]: 20 MG/KG BW IN 0.9% SALINE 1/WK FOR 10 WK, Promoter: NONE USED): 13%, 18%, -38%, not significant
tumour outcome (control, treated, inhibition, significance) (Carcinogen: 1,2-DIMETHYLHYDRAZINE, 540-73-8, Dose [Inhibitor]: 1.2% IN DIET DAILY STARTING 2 WK PRIOR TO CARCINOGEN TREATMENT AND CONTINUING FOR DURATION OF STUDY (STUDY DURATION: 28, Species: RAT, Strain/Sex: SPRAGUE-DAWLEY/MALE, Target Tissue: Type of Lesion: COLON: ADENOCARCINOMA, Dose [Carcinogen]: 20 MG/KG BW IN BACTERIOSTATIC SALINE 1/WK FOR 20 WK, Promoter: NONE USED): 64%, 38%, 41%, not calculated
tumour outcome (control, treated, inhibition, significance) (Carcinogen: 3-METHYLCHOLANTHRENE, 56-49-5, Dose [Inhibitor]: 0, 1.25% IN DRINKING WATER FOR DURATION OF STUDY BEGINNING 15 D PRIOR TO CARCINOGEN TREATMENT (STUDY DURATION: 150 D), Species: MOUSE, Strain/Sex: LACA/MALE, Target Tissue: Type of Lesion: GLANDULAR STOMACH: TUMOR, Dose [Carcinogen]: 2.2 MG (AVERAGE DOSE) ON COTTON THREADS IMPLANTED IN GLANDULAR STOMACH, Promoter: NONE USED): 66%, 28%, 58%, p<0.02
tumour outcome (control, treated, inhibition, significance) (Carcinogen: 3-METHYLCHOLANTHRENE, 56-49-5, Dose [Inhibitor]: 0, 2 MG/ML IN DRINKING WATER FOR 6 WK BEGINNING ON FIRST DAY OF CARCINOGEN TREATMENT (STUDY DURATION: 16 WK), Species: MOUSE, Strain/Sex: SWISS/FEMALE, Target Tissue: Type of Lesion: CERVIX: SQUAMOUS CELL CARCINOMA, Dose [Carcinogen]: 600 UG IN BEESWAX IMPREGNATED COTTON THREAD FOR DURATION OF STUDY, Promoter: NONE USED): 16/21 (76%), 5/15 (33%), 57%, p<0.02
tumour outcome (control, treated, inhibition, significance) (Carcinogen: 3-METHYLCHOLANTHRENE, 56-49-5, Dose [Inhibitor]: 0, 2 MG/ML IN DRINKING WATER FOR 10 WK BEGINNING 6 WK AFTER FIRST DAY OF CARCINOGEN TREATMENT (STUDY DURATION: 16 WK), Species: MOUSE, Strain/Sex: SWISS/FEMALE, Target Tissue: Type of Lesion: CERVIX: SQUAMOUS CELL CARCINOMA, Dose [Carcinogen]: 600 UG IN BEESWAX IMPREGNATED COTTON THREAD FOR DURATION OF STUDY, Promoter: NONE USED): 16/21 (76%), 8/12 (67%), 12%, not significant
tumour outcome (control, treated, inhibition, significance) (Carcinogen: 3-METHYLCHOLANTHRENE, 56-49-5, Dose [Inhibitor]: 0, 2 MG/ML IN DRINKING WATER FOR 16 WK (STUDY DURATION: 16 WK), Species: MOUSE, Strain/Sex: SWISS/FEMALE, Target Tissue: Type of Lesion: CERVIX: SQUAMOUS CELL CARCINOMA, Dose [Carcinogen]: 600 UG IN BEESWAX IMPREGNATED COTTON THREAD FOR DURATION OF STUDY, Promoter: NONE USED): 16/21 (76%), 5/15 (33%), 57%, p<0.02
tumour outcome (control, treated, inhibition, significance) (Carcinogen: 7,12-DIMETHYLBENZ[A]ANTHRACENE, 57-97-6, Dose [Inhibitor]: 0, 30 MG/ML IN DRINKING WATER FROM 40-90 D OF AGE THEN 0, 20 MG/ML FROM 90-180 D OF AGE AND 0, 10 MG/ML FROM 180-240 D O, Dose [Inhibitor]: 0, 30 MG/ML IN DRINKING WATER FROM 40-90 D OF AGE THEN 0, 20 MG/ML FROM 90-180 D OF AGE AND 0, 10 MG/ML FROM 180-240 D O, Species: RAT, Strain/Sex: SPRAGUE-DAWLEY/FEMALE, Target Tissue: Type of Lesion: MAMMARY GLAND: ADENOCARCINOMA, FIBROADENOMA, Dose [Carcinogen]: 5 MG IN 0.2 ML SESAME OIL 1/2 D FOR 12 D BEGINNING AT 50 D OF AGE, Promoter: NONE USED): 100%, 57%, 43%, p<0.001
